Patent US20110034335A1, “Treatment of Ornamental Plants” (priority 2009, published 2011)

Experiments:
Format in all cases: in vivo
Petunia = experiment: Spray with 1-MCP solutions with or without Silwet L-77, ethylene challenge (Example 6)
Method: (§1) Spray applications were made using (unless otherwise noted) AFxRD-038 powder containing 3.8% active ingredient, i.e. 1-MCP, and also containing dextrose, alpha-cyclodextrin, and amino acid salt. Rates listed are for active ingredient e.g. 5 mg active ingredient per liter. Sprayed liquid contained (unless otherwise noted) AFxRD-038 powder added to water. AFxRD-038 powder was obtained from AgroFresh Inc. The water used (unless otherwise noted) was tap water. Applications were done in 500 ml spray bottles at rates typical for growth regulators applications in the ornamental industry i.e., 200 ml per square meter. Spraying was done within 5-15 minutes of mixing the formulation. Plants were allowed to dry for 1-4 hours before being challenged with ethylene (2 ppm for about 16 hours at ambient temperatures).
(§2) Surfactant Silwet™ L-77 (called “surf” below) was sometimes included to evaluate the effect of surfactant on efficacy. Silwet™ L-77 was used in the form of a pure liquid. The amounts shown below as “ml/L” refer to milliliters of pure Silwet™ L-77 per liter of liquid CP composition.
Bud wilting (%) of Petunia (in six-pack trays) sprayed with 1-MCP solutions with or without Silwet™ L-77 surfactant and challenged with ethylene.

Campanula = experiment: Spray with 1-MCP solutions without surfactant, ethylene challenge (Example 3)
Method: as §1
Bud wilting and flower abscission (%) of Campanula (in pots) sprayed with 1-MCP solutions without a surfactant, and challenged with ethylene. We observed the percent of plants on which one or more buds or one or more flowers underwent wilting or abscission or both.

‘Magenta’ Impatiens = experiment: Spray with 1-MCP solutions with Silwet L-77, ethylene challenge (Example 5); settings: for Wilt and/or Abscission (%): surf. 0.25 ml/L
Method: as §1, §2

[1] = system: racks of flowering plants; experiment: Racks of flowering plants, overall comparison sprayed vs control (Example 8); settings: 25 mg/L; every variety
Method: as §1
Racks of flowers were sprayed with spray liquid containing 25 mg/L at rate of 200 ml/square meter. Racks were then placed into a full enclosed truck (length 7.3 meter) for 14 hours. Plants were then challenged with ethylene and evaluated 3 and 7 days later, using a rating scale from 0 (poor) to 2 (good). […] Results were as follows:
In no case was the sprayed plant worse to a statistically significant degree than the corresponding control plant. In most cases the sprayed plant was better than the corresponding control plant.

Impatiens = experiment: Shelf life after low-concentration spray (Example 9); settings: EthylBloc powder in distilled water
Text: (§3) Spray liquid was EthylBloc™ powder (contains 0.14% by weight 1-MCP, plus alpha-cyclodextrin and dextrose, obtained from Floralife Inc.) in distilled water. The shelf lives of sprayed and non-sprayed control plants were observed, with the following results: […]

Geranium = experiment: as above; settings: EthylBloc powder in distilled water
Text: as §3

New Guinea Impatiens = experiment: as above; settings: EthylBloc powder in distilled water
Text: as §3

Regal Geranium ‘Camelot’ = experiment: Spray with 1-MCP solutions with or without surfactant, ethylene challenge (Example 4)
Method: as §1, §2
(§4) Flower loss (%) on Regal Geranium cultivars, ‘Camelot’ and ‘Jewel’ (in pots), sprayed with 1-MCP solutions with or without surfactant (Silwet™ L-77) and challenged with ethylene.

Regal Geranium ‘Jewel’ = experiment: as above
Method: as §1, §2, §4

[2] = system: ‘Hark’ Phalaenopsis orchids; experiment: Spray with 1-MCP solutions with or without Silwet L-77, ethylene challenge (Example 7)
Method: as §1, §2
Percent of plants showing one or more of flower wilting, bud wilting, and drop on ‘Hark’ Phalaenopsis orchids (in pots) sprayed with 1-MCP solutions with or without Silwet™ L-77 surfactant and challenged with ethylene.

[3] = 1-MCP 5 mg/L, surf 0 ml/L, Day 5
[4] = 1-MCP 10 mg/L, surf 0 ml/L, Day 5
[5] = 1-MCP 5 mg/L, surf. 0 ml/L, Day 1 (Day 1/Day 2 column pair)
[6] = 1-MCP 5 mg/L, surf. 0 ml/L, Day 1 (Day 1/Day 7 column pair)
[7] = 1-MCP 5 mg/L, surf. 0 ml/L, Day 2
[8] = 1-MCP 5 mg/L, surf. 0 ml/L, Day 7
[9] = 1-MCP 5 mg/L, surf. 2 ml/L, Day 1, phytotoxicity was observed
[10] = 1-MCP 5 mg/L, surf. 2 ml/L, Day 2, phytotoxicity was observed
[11] = 1-MCP 10 mg/L, surf. 0 ml/L, Day 1
[12] = 1-MCP 10 mg/L, surf. 0 ml/L, Day 7
[13] = 1-MCP 25 mg/L, surf. 0 ml/L, Day 1
[14] = 1-MCP 25 mg/L, surf. 0 ml/L, Day 7
[15] = 1-MCP 50 mg/L, surf. 0 ml/L, Day 1 (Day 1/Day 2 column pair), phytotoxicity was observed
[16] = 1-MCP 50 mg/L, surf. 0 ml/L, Day 1 (Day 1/Day 7 column pair), phytotoxicity was observed
[17] = 1-MCP 50 mg/L, surf. 0 ml/L, Day 2, phytotoxicity was observed
[18] = 1-MCP 50 mg/L, surf. 0 ml/L, Day 7, phytotoxicity was observed
[19] = 1-MCP 50 mg/L, surf. 2 ml/L, Day 1, phytotoxicity was observed
[20] = 1-MCP 50 mg/L, surf. 2 ml/L, Day 2, phytotoxicity was observed

## CC1=CC1 [1-MCP, 1-methylcyclopropene]
Petunia; 1-MCP 1 mg/L, surf 0 ml/L, Day 5
  Bud Wilting (%): 89%
Petunia; 1-MCP 1 mg/L, surf 0 ml/L, Day 9
  Bud Wilting (%): 93%
Petunia; 1-MCP 1 mg/L, surf 0.25 ml/L, Day 5
  Bud Wilting (%): 76%
Petunia; 1-MCP 1 mg/L, surf 0.25 ml/L, Day 9
  Bud Wilting (%): 93%
Petunia; 1-MCP 2.5 mg/L, surf 0 ml/L, Day 5
  Bud Wilting (%): 74%
Petunia; 1-MCP 2.5 mg/L, surf 0 ml/L, Day 9
  Bud Wilting (%): 91%
Petunia; 1-MCP 2.5 mg/L, surf 0.25 ml/L, Day 5
  Bud Wilting (%): 68%
Petunia; 1-MCP 2.5 mg/L, surf 0.25 ml/L, Day 9
  Bud Wilting (%): 85%
Petunia; [3]
  Bud Wilting (%): 63%
Petunia; 1-MCP 5 mg/L, surf 0 ml/L, Day 9
  Bud Wilting (%): 71%
Petunia; 1-MCP 5 mg/L, surf 0.25 ml/L, Day 5
  Bud Wilting (%): 57%
Petunia; 1-MCP 5 mg/L, surf 0.25 ml/L, Day 9
  Bud Wilting (%): 67%
Petunia; [4]
  Bud Wilting (%): 34%
Petunia; 1-MCP 10 mg/L, surf 0 ml/L, Day 9
  Bud Wilting (%): 52%
Petunia; 1-MCP 10 mg/L, surf 0.25 ml/L, Day 5
  Bud Wilting (%): 37%
Petunia; 1-MCP 10 mg/L, surf 0.25 ml/L, Day 9
  Bud Wilting (%): 50%
Campanula; 1-MCP 5 mg/L, Day 1
  Bud Wilting and/or Flower Abscission (%): 21%
Campanula; 1-MCP 5 mg/L, Day 7
  Bud Wilting and/or Flower Abscission (%): 25%
Campanula; 1-MCP 10 mg/L, Day 1
  Bud Wilting and/or Flower Abscission (%): 45%
Campanula; 1-MCP 10 mg/L, Day 7
  Bud Wilting and/or Flower Abscission (%): 52%
Campanula; 1-MCP 25 mg/L, Day 1
  Bud Wilting and/or Flower Abscission (%): 38%
Campanula; 1-MCP 25 mg/L, Day 7
  Bud Wilting and/or Flower Abscission (%): 59%
Campanula; 1-MCP 50 mg/L, Day 1
  Bud Wilting and/or Flower Abscission (%): 38%
Campanula; 1-MCP 50 mg/L, Day 7
  Bud Wilting and/or Flower Abscission (%): 57%
‘Magenta’ Impatiens; 1-MCP 5 mg/L
  Wilt and/or Abscission (%): 3%
‘Magenta’ Impatiens; 1-MCP 10 mg/L
  Wilt and/or Abscission (%): 2%
‘Magenta’ Impatiens; 1-MCP 25 mg/L
  Wilt and/or Abscission (%): 5%
‘Magenta’ Impatiens; 1-MCP 50 mg/L
  Wilt and/or Abscission (%): 0%
‘Magenta’ Impatiens; even at the highest rates with Silwet L-77
  phytotoxicity: No phytotoxicity was observed
[1]
  sprayed plant compared with control plant: better than the control plant at day 3 or at day 7 or at both
Impatiens; 1-MCP 0.03 mg/L
  Shelf Life: 3 days
Impatiens; 1-MCP 0.32 mg/L
  Shelf Life: 5 days
Geranium; 1-MCP 0.03 mg/L
  Shelf Life: 3 days
Geranium; 1-MCP 0.32 mg/L
  Shelf Life: 4 days
New Guinea Impatiens; 1-MCP 0.03 mg/L
  Shelf Life: 4 days
New Guinea Impatiens; 1-MCP 0.32 mg/L
  Shelf Life: 7 days
Regal Geranium ‘Camelot’; [5]
  Flower Loss (%): 45 ^ %
Regal Geranium ‘Camelot’; [6]
  Flower Loss (%): 62%
Regal Geranium ‘Camelot’; [7]
  Flower Loss (%): 64^ %
Regal Geranium ‘Camelot’; [8]
  Flower Loss (%): 46%
Regal Geranium ‘Camelot’; [9]
  Flower Loss (%): 5^(3) %
Regal Geranium ‘Camelot’; [10]
  Flower Loss (%): 24^(3) %
Regal Geranium ‘Camelot’; [11]
  Flower Loss (%): 20%
Regal Geranium ‘Camelot’; [12]
  Flower Loss (%): 0%
Regal Geranium ‘Camelot’; [13]
  Flower Loss (%): 28%
Regal Geranium ‘Camelot’; [14]
  Flower Loss (%): 27%
Regal Geranium ‘Camelot’; [15]
  Flower Loss (%): 0^(3) %
Regal Geranium ‘Camelot’; [16]
  Flower Loss (%): 0^(3) %
Regal Geranium ‘Camelot’; [17]
  Flower Loss (%): 0^(3) %
Regal Geranium ‘Camelot’; [18]
  Flower Loss (%): 48^(3) %
Regal Geranium ‘Camelot’; [19]
  Flower Loss (%): 5^(3) %
Regal Geranium ‘Camelot’; [20]
  Flower Loss (%): 44^(3) %
Regal Geranium ‘Jewel’; [5]
  Flower Loss (%): 84^ %
Regal Geranium ‘Jewel’; [6]
  Flower Loss (%): 90%
Regal Geranium ‘Jewel’; [7]
  Flower Loss (%): 100 ^ %
Regal Geranium ‘Jewel’; [8]
  Flower Loss (%): 76%
Regal Geranium ‘Jewel’; [9]
  Flower Loss (%): 65^(3) %
Regal Geranium ‘Jewel’; [10]
  Flower Loss (%): 100^(3) %
Regal Geranium ‘Jewel’; [11]
  Flower Loss (%): 85%
Regal Geranium ‘Jewel’; [12]
  Flower Loss (%): 68%
Regal Geranium ‘Jewel’; [13]
  Flower Loss (%): 52%
Regal Geranium ‘Jewel’; [14]
  Flower Loss (%): 43%
Regal Geranium ‘Jewel’; [15]
  Flower Loss (%): 28^(3) %
Regal Geranium ‘Jewel’; [16]
  Flower Loss (%): 26^(3) %
Regal Geranium ‘Jewel’; [17]
  Flower Loss (%): 82^(3) %
Regal Geranium ‘Jewel’; [18]
  Flower Loss (%): 65^(3) %
Regal Geranium ‘Jewel’; [19]
  Flower Loss (%): 35^(3) %
Regal Geranium ‘Jewel’; [20]
  Flower Loss (%): 81^(3) %
[2]; 1-MCP 5 mg/L, surf 0 ml/L, Day 0
  flower wilt, bud wilt, and/or drop (%): 0 a %
[2]; [3]
  flower wilt, bud wilt, and/or drop (%): 1.8%
[2]; 1-MCP 5 mg/L, surf 0 ml/L, Day 10
  flower wilt, bud wilt, and/or drop (%): 1.8%
[2]; 1-MCP 5 mg/L, surf 0 ml/L, Day 15
  flower wilt, bud wilt, and/or drop (%): 1.8%
[2]; 1-MCP 10 mg/L, surf 0 ml/L, Day 0
  flower wilt, bud wilt, and/or drop (%): 0 a %
[2]; [4]
  flower wilt, bud wilt, and/or drop (%): 2.9%
[2]; 1-MCP 10 mg/L, surf 0 ml/L, Day 10
  flower wilt, bud wilt, and/or drop (%): 2.9%
[2]; 1-MCP 10 mg/L, surf 0 ml/L, Day 15
  flower wilt, bud wilt, and/or drop (%): 2.9%
[2]; 1-MCP 25 mg/L, surf 0 ml/L, Day 0
  flower wilt, bud wilt, and/or drop (%): 0 a %
[2]; 1-MCP 25 mg/L, surf 0 ml/L, Day 5
  flower wilt, bud wilt, and/or drop (%): 0%
[2]; 1-MCP 25 mg/L, surf 0 ml/L, Day 10
  flower wilt, bud wilt, and/or drop (%): 0%
[2]; 1-MCP 25 mg/L, surf 0 ml/L, Day 15
  flower wilt, bud wilt, and/or drop (%): 0%
[2]; 1-MCP 50 mg/L, surf 0 ml/L, Day 0
  flower wilt, bud wilt, and/or drop (%): 0 a %
[2]; 1-MCP 50 mg/L, surf 0 ml/L, Day 5
  flower wilt, bud wilt, and/or drop (%): 1.8%
[2]; 1-MCP 50 mg/L, surf 0 ml/L, Day 10
  flower wilt, bud wilt, and/or drop (%): 1.8%
[2]; 1-MCP 50 mg/L, surf 0 ml/L, Day 15
  flower wilt, bud wilt, and/or drop (%): 1.8%
[2]; 1-MCP 50 mg/L, surf 0.25 ml/L, Day 0
  flower wilt, bud wilt, and/or drop (%): 0 a %
[2]; 1-MCP 50 mg/L, surf 0.25 ml/L, Day 5
  flower wilt, bud wilt, and/or drop (%): 0%
[2]; 1-MCP 50 mg/L, surf 0.25 ml/L, Day 10
  flower wilt, bud wilt, and/or drop (%): 0%
[2]; 1-MCP 50 mg/L, surf 0.25 ml/L, Day 15
  flower wilt, bud wilt, and/or drop (%): 0%
